This note sets out measurements from US20060095020A1, “Introduction of agent with medical device” (Medtronic, Inc., priority 2004, published 2006).

This assay concerns staphylococcus epidermidis. Particulars: in vitro. The source says: One skilled in the are would be able to determine the best effective concentration of the active agent, such about 0.05%, about 1%, about 5%, about 10%, about 20%, or the like that should be deployed in a choosen configuration of a given device.
FIG. 10 is a conceptual diagram illustrating an in vitro testing system 160 with an active agent. Testing system 160 includes a culture plate 162, which serves as a test platform. […] A experimental tube 168 made at least in part of diffusible material is deployed in plate 162 proximate to microorganisms 166. The diffusible material is configured to pass the test agent to the indicator by diffusion. Experimental tube 168 may be wholly or partially embedded in growth medium 164, or may rest atop growth medium 164. Experimental tube 168 includes a lumen configured to receive a test active agent.
A pump 170 pumps the active agent from a reservoir 172 into the lumen of tube 168. A valve 174 may be closed to prevent leakage or other discharge of the active agent from tube 168, and an outlet reservoir 176 may be provided to collect fluid that discharges from tube 168. In some embodiments, pump 170, valve 174, or both are electronically controlled such that the quantity of active agent in tube 168 is known, such that the pressure of active agent in tube 168 is known, or such that the flow rate of active agent in tube 168 is known. When the active agent is an antibiotic, the effect of the antibiotic agent on microorganisms 166, if any, can be observed using conventional observational techniques, such as optical or microscopic examination. In this way, the effect of the active agent on microorganisms 166 serves as an indicator of diffusion of the test agent through the diffusible material.

As to `OO` [hydrogen peroxide], the “zone of inhibition of bacterial growth” value (0.3 percent hydrogen peroxide concentration) is “about twenty-five”. Moreover, the “zone of inhibition of bacterial growth from the site of diffusion” value (thirty percent concentration hydrogen peroxide solution, diffusing through polyethylene 80 (PE80A) tubing) was “eighty”. Where the note is “thirty percent concentration hydrogen peroxide solution”, the “effectiveness against staphylococcus epidermidis” value is on record as “substantial effectiveness”.
